Measurements taken from ChEMBL document CHEMBL5252552, “Defined concatenated α6α1β3γ2 GABAA receptor constructs reveal dual action of pyrazoloquinolinone allosteric modulators” (Bioorg Med Chem, 2019).

Legend:
Assay type in all cases: cell-based
[1] = biological target: Gamma-aminobutyric acid receptor subunit alpha-1/beta-3/gamma-2 (Rattus norvegicus) (UniProt P18508+P62813+P63079); assay: Positive allosteric modulation of rat recombinant GABAA alpha1beta3gamma2 receptor expressed in Xenopus laevis oocytes assessed as maximal efficacy at -80 mV holding potential at 30 nM in presence of GABA EC1 to 1.5 by two-electrode voltage-clamp assay; details: Oocyte
[2] = biological target: Gamma-aminobutyric acid receptor subunit alpha-6/beta-3/gamma-2 (Rattus norvegicus) (UniProt P18508+P30191+P63079); assay: Positive allosteric modulation of rat recombinant GABAA alpha6beta3gamma2 receptor expressed in Xenopus laevis oocytes assessed as maximal efficacy at -80 mV holding potential at 1 nM in presence of GABA EC1 to 1.5 by two-electrode voltage-clamp assay; details: Oocyte
[3] = biological target: Gamma-aminobutyric acid receptor subunit alpha-1/alpha-6/beta-3/gamma-2 (Rattus norvegicus) (UniProt P18508+P30191+P62813+P63079); assay: Positive allosteric modulation of rat recombinant GABAA gamma2beta3alpha1-beta3alpha6 receptor expressed in Xenopus laevis oocytes assessed as maximal current at -80 mV holding potential under less potent phase in presence of GABA EC1 to 1.5 by two-electrode voltage-clamp assay relative to control; details: Oocyte, filed as positive allosteric modulator

- Efficacy [1]: 2%
- Efficacy [2]: 9%
- %max [3]: 230%
SMILES: COc1ccc(-n2nc3c4ccc(Br)cc4[nH]cc-3c2=O)cc1
